Reference: article PMC11149917, “Translational and Therapeutic Evaluation of RAS-GTP Inhibition by RMC-6236 in RAS-Driven Cancers” (Cancer Discovery, 2024)
Read-outs that look alike come from different tables or passages of the source.

Experiment: Mouse blood and tissue PK (LC/MS-MS)
Assay type: in vivo
Conditions: for AUC(0-t): read-out: Blood AUClast; for half-life: read-out: Blood t1/2 (converted)
Method: For single-dose PKPD study, mice were randomized and assigned into groups (n = 3/dose/time point). […] Blood and tissues, including the tumor, brain, colon, ear skin, and muscle, were harvested at indicated time points. […] The whole blood, tumor, brain, colon, and ear skin concentrations of RMC-6236 were determined using liquid chromatography–tandem mass spectrometry (LC/MS-MS) methods. […] After thorough mixing and centrifugation, the supernatant was diluted with water or directly analyzed on a Sciex 5500 or Sciex 6500+ triple quadrupole mass spectrometer equipped with an ACQUITY or Shimadzu UPLC system. […] Bioanalysis on blood and tissue samples from xenograft models was run at Pharmaron and Wuxi AppTec. Concentrations reported as below the quantification limit were treated as zero for PK analysis. PK parameters were calculated by noncompartmental analysis of the concentration–time profiles using Phoenix WinNonLin (version 8.3 Certara). Apparent terminal elimination half-life (t1/2) values were calculated as ln(2)/k, where k represents the terminal elimination rate constant. Area under the concentration–time curve (AUC) values were estimated using a linear trapezoidal method. AUClast values were calculated from the dosing time to the last quantifiable concentration. Maximum concentration (Cmax) was recorded as observed.

[1] = mouse, whole blood, po, 1 mg/kg, NCI-H441 #1 (1 mg/kg), QD x 28 days
[2] = mouse, whole blood, po, 3 mg/kg, NCI-H441 (3 mg/kg), single dose
[3] = mouse, whole blood, po, 5 mg/kg, NCI-H441 #1 (5 mg/kg), QD x 28 days
[4] = mouse, whole blood, po, 10 mg/kg, NCI-H441 #1 (10 mg/kg), QD x 28 days
[5] = mouse, whole blood, po, 10 mg/kg, NCI-H441 (10 mg/kg), single dose
[6] = mouse, whole blood, po, 25 mg/kg, HPAC (25 mg/kg), single dose
[7] = mouse, whole blood, po, 25 mg/kg, KP-4 (25 mg/kg), single dose
[8] = mouse, whole blood, po, 25 mg/kg, NCI-H358 (25 mg/kg), single dose
[9] = mouse, whole blood, po, 25 mg/kg, NCI-H441 #1 (25 mg/kg), QD x 28 days
[10] = mouse, whole blood, po, 25 mg/kg, NCI-H441 #2 (25 mg/kg), QD x 10 days
[11] = mouse, whole blood, po, 25 mg/kg, NCI-H441 (25 mg/kg), single dose
[12] = mouse, whole blood, po, 25 mg/kg, NCI-H2122 (25 mg/kg), single dose

## CCn1c(-c2cc(N3CCN(C)CC3)cnc2[C@H](C)OC)c2c3cc(ccc31)-c1csc(n1)C[C@H](NC(=O)[C@H]1C[C@@H]1C)C(=O)N1CCC[C@H](N1)C(=O)OCC(C)(C)C2 [RMC-6236]
mouse, whole blood, oral, 50 mg/kg, Model Validation Dataset, 50mg/kg_study6, 4 h, read-out: Blood Concentration
  concentration at 4 h: 1980 nM
mouse, whole blood, oral, 50 mg/kg, Model Validation Dataset, 50mg/kg_study6, 8 h, read-out: Blood Concentration
  concentration at 8 h: 1350 nM
mouse, whole blood, oral, 50 mg/kg, Model Validation Dataset, 50mg/kg_study6, 24 h, read-out: Blood Concentration
  concentration at 24 h: 22.4 nM
mouse, whole blood, oral, 50 mg/kg, Model Validation Dataset, 50mg/kg_study6, 48 h, read-out: Blood Concentration
  concentration at 48 h: 2.76 nM
mouse, whole blood, oral, 50 mg/kg, Naïve Mice #1 (50 mg/kg), single dose
  Cmax: 2960 ng/mL
[1]
  Cmax: 79.2 ng/mL
  AUC(0-t): 384 ng·h/mL
  half-life: 2.9 h
[2]
  Cmax: 219 ng/mL
  AUC(0-t): 1180 ng·h/mL
[3]
  Cmax: 286 ng/mL
  AUC(0-t): 1330 ng·h/mL
  half-life: 4.09 h
[4]
  Cmax: 533 ng/mL
  AUC(0-t): 2780 ng·h/mL
  half-life: 3.22 h
[5]
  Cmax: 520 ng/mL
  AUC(0-t): 3810 ng·h/mL
  half-life: 2.93 h
[6]
  Cmax: 1310 ng/mL
  AUC(0-t): 12000 ng·h/mL
  half-life: 2.62 h
[7]
  Cmax: 1460 ng/mL
  AUC(0-t): 12500 ng·h/mL
  half-life: 2.61 h
[8]
  Cmax: 1150 ng/mL
  AUC(0-t): 8720 ng·h/mL
  half-life: 2.78 h
[9]
  Cmax: 1250 ng/mL
  AUC(0-t): 6950 ng·h/mL
  half-life: 3.46 h
[10]
  Cmax: 1080 ng/mL
  AUC(0-t): 6660 ng·h/mL
  half-life: 2.67 h
[11]
  Cmax: 1250 ng/mL
  AUC(0-t): 9060 ng·h/mL
  half-life: 3.11 h
[12]
  Cmax: 1110 ng/mL
  AUC(0-t): 7930 ng·h/mL
  half-life: 4.5 h
Sheet Ear Skin, model Capan-2, study Capan-2 #3_PHA 2023, 3 mg/kg, 48h
  RMC-6236 (nM) Tumor: BQL
Sheet colon, Capan-2, Capan-2 #3_PHA 2023, 3 mg/kg, 24h
  RMC-6236 (nM) Tumor: BQL
Sheet colon, Capan-2, Capan-2 #3_PHA 2023, 3 mg/kg, 48h
  RMC-6236 (nM) Tumor: BQL
Sheet colon, Capan-2, Capan-2 #3_PHA 2023, 10 mg/kg, 48h
  RMC-6236 (nM) Tumor: BQL
Sheet colon, Capan-2, Capan-2 #3_PHA 2023, 25 mg/kg, 48h
  RMC-6236 (nM) Tumor: BQL
Sheet colon, Capan-2, Capan-2 #3_PHA 2023, 50 mg/kg, 48h
  RMC-6236 (nM) Tumor: BQL
Sheet colon, Capan-2, Capan-2 #3_PHA 2023, 100 mg/kg, 48h
  RMC-6236 (nM) Tumor: BQL
Sheet colon, KP-4, KP-4 #5, 25 mg/kg, 48h
  RMC-6236 (nM) Tumor: BQL
